These results are taken from PubChem BioAssay (NCI).

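These data come from cells grown in 96-well plates and exposed to compound for 48 hours at five concentrations. Abbreviation: GI50, concentration required for 50% inhibition of growth. TGI: concentration producing complete growth inhibition.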

Holding throughout (assay): NCI anticancer screen, dose series, 48 h
In assay [1] the test system is HT29 colon.
Assay [2] has as its system SK-MEL-5 melanoma.
Assay [3] relates to COLO 205 colon.
Assay [4] deals with HOP-92 NSCLC.
Assay [5] deals with TK-10 renal.
Assay [6] relates to MALME-3M melanoma.
Assay [7] relates to 786-0 renal.
In assay [8] the test system is SR leukemia.

For `Cn1c(=O)c(Oc2ccc(F)cc2)cc2cnc(NC3CCOCC3)nc21`, the GI50 was greater than 25 µM in assay [1]; greater than 25 µM in assay [2]; greater than 25 µM in assay [3]; 4.72 µM in assay [4]; greater than 25 µM in assay [5]; greater than 25 µM in assay [6]. The GI50 in assay [7] and in assay [8] was greater than 25 µM in each case. The TGI in assay [1], in assay [2], in assay [3], in assay [4], in assay [5] and in assay [6] was greater than 25 µM throughout. Besides, the TGI in assay [7] and in assay [8] was greater than 25 µM throughout.
Regarding `CCOC(=O)/C=C/c1ccc(C#Cc2ccccc2)cc1`, the GI50 is greater than 100 µM in assay [1]; 68.5 µM in assay [2]; greater than 100 µM in assay [3]; greater than 100 µM in assay [4]; greater than 100 µM in assay [5]; 98.3 µM in assay [6]. Besides, the GI50 is greater than 100 µM in assay [7] and 10.3 µM in assay [8]. Also, the TGI in assay [1], in assay [2], in assay [3], in assay [4], in assay [5] and in assay [6] was greater than 100 µM throughout. Also, the TGI in assay [7] and in assay [8] was greater than 100 µM each time.
With `CCN(Cc1ccc(F)cc1)c1ccc(CO)c(Br)c1`, the GI50 was 2.4 µM in assay [1]; 3.42 µM in assay [2]; 0.966 µM in assay [3]; 0.173 µM in assay [4]; 0.021 µM in assay [5]; 16.9 µM in assay [6]. Further, the GI50 in assay [7] is 5.85 µM; in assay [8], 17 µM. Further, the TGI is 19.4 µM in assay [1]; 19.6 µM in assay [2]; 4.98 µM in assay [3]; 6.23 µM in assay [4]; 0.101 µM in assay [5]; 38 µM in assay [6]. The TGI was found to be 31.1 µM in assay [7] and 46.4 µM in assay [8].
`O=C1c2cccc3cccc(c23)C(=O)N1CCCCCN1CCN(CCCCCOc2ccc(-c3nc4ccc(N5CCOCC5)cc4[nH]3)cc2)CC1`: the GI50 is 5.99 µM in assay [1]; 6.43 µM in assay [2]; 13.1 µM in assay [3]; 25.1 µM in assay [4]; 8.24 µM in assay [5]; 17.7 µM in assay [6]. Further, the GI50 in assay [7] was 22.9 µM; in assay [8] it was 1.18 µM. In addition, the TGI in assay [1] is 23.8 µM; in assay [2] it was 19.9 µM; in assay [3], 28.7 µM; in assay [4], greater than 58.2 µM; in assay [5] it was 14.8 µM; in assay [6], 40 µM. For the same compound, the TGI in assay [7] is 51.3 µM; in assay [8] it was 3.2 µM.
As for `C=CCc1ccc(O)c(-c2ccc(O)c(CC=C)c2)c1`, the GI50 in assay [1] was 23.3 µM; in assay [2], 10.8 µM; in assay [3], 18.5 µM; in assay [4], 13.9 µM; in assay [5], 16 µM; in assay [6], 17.1 µM. Also, the GI50 in assay [7] was 16.8 µM; in assay [8], 14.8 µM. Further, the TGI in assay [1] amounted to 53.8 µM; in assay [2] it was 23.4 µM; in assay [3], 34.1 µM; in assay [4], 31.1 µM; in assay [5], 33.9 µM; in assay [6], 34.9 µM. Moreover, the TGI in assay [7] was 33.5 µM; in assay [8], greater than 100 µM.
Turning to `O=[N+]([O-])c1cccc2ccc(N/N=C/c3ccccc3O)nc12`, the GI50 was greater than 100 µM in assay [1]; greater than 100 µM in assay [2]; 1.91 µM in assay [3]; greater than 100 µM in assay [4]; greater than 100 µM in assay [5]; greater than 100 µM in assay [6]. Also, the GI50 in assay [7] is greater than 100 µM; in assay [8] it was 0.148 µM. For the same compound, the TGI in assay [1] was greater than 100 µM; in assay [2], greater than 100 µM; in assay [3] it was greater than 19.8 µM; in assay [4], greater than 100 µM; in assay [5] it was greater than 100 µM; in assay [6] it was greater than 100 µM. In addition, the TGI was greater than 100 µM in assay [7] and 7.03 µM in assay [8].
For the compound `Nc1c(C(=O)c2ccccc2)cnn1-c1ccc(F)cc1`, the GI50 in assay [1] is greater than 25 µM; in assay [2] it was greater than 25 µM; in assay [3] it was greater than 25 µM; in assay [4], greater than 19.3 µM; in assay [5] it was greater than 25 µM; in assay [6], greater than 25 µM. For the same compound, the GI50 in assay [7] and in assay [8] was greater than 25 µM throughout. Also, the TGI in assay [1], in assay [2], in assay [3], in assay [4], in assay [5] and in assay [6] was greater than 25 µM each time. Moreover, the TGI in assay [7] and in assay [8] was greater than 25 µM in each case.
